Literature values, collected in paper PMC3290704 (Journal of the American Chemical Society, 2012).

Assays:
TAZ2 from p300 = settings: NMR structure of complex
TAZ2 = settings: fluorescence titrations

Row | Kd (TAZ2) [nM] | Substance | TAZ2 residues in direct hydrophobic contact with p53 (TAZ2 from p300) | p53 residues forming an α-helix upon binding (TAZ2 from p300)
1 |  | p53(2–39): p53(2–39) peptide in NMR structure with TAZ2 from p300 | Val1802, Leu1823, and Leu1826 of TAZ2 have direct hydrophobic contacts with p53 | residues 17 ~ 24 of the p53 AD1 subdomain form an α-helix upon binding
2 | 10 to 20 | p53(13–61): p53(13–61), literature TAZ2 binder by fluorescence titration |  | 
